Test system: Hh-signalling cascade
Experiment: Inhibition of SHh-induced alkaline phosphatase in C3H10T1/2 cells (Hh-signalling cascade inhibition)
Format: cell-based
Source text: C3H10T1/2 Cells were used for identification of inhibitors of SHh-protein signaling cascade. SHh-protein activates C3H10T1/2 cells, that leads to their osteogenic differentiation [1) Kinto N., Iwamoto M., Enomoto-Iwamoto M., Noji S., Ohuchi H., Yoshioka H., Kataoka H., Wada Y., Yuhao G., Takahashi H. E., Yoshiki S., Yamaguchi A. Fibroblasts expressing Sonic hedgehog induce osteoblast differentiation and ectopic bone formation. FEBS Lett. 1997; 404(2-3): 319-23. 2) Spinella-Jaegle S., Rawadi G., Kawai S., Gallea S., Faucheu C., Mollat P., Courtois B., Bergaud B., Ramez V., Blanchet A. M., Adelmant G., Baron R., Roman-Roman S. Sonic hedgehog increases the commitment of pluripotent mesenchymal cells into the osteoblastic lineage and abolishes adipocytic differentiation. J. Cell Sci. 2001; 114(Pt 11): 2085-94] and, in particular, to expression enhancement of alkaline phosphatase enzyme.
The cells were cultivated in DMEM medium with 10% embryonal calfish serum in incubator at 37° C., 100% humidity and 5% CO2 content. The cells were placed in 384-well plates and left for night. On the next day the tested compounds in concentration of 10 μM were added to the cells, incubated for 30 min, then recombinant (R & D Systems, USA) SHh protein in concentration of 0.3 μg/ml was added and incubation was continued for 3 days. Cells with DMSO instead of a test compound and cells without SHh protein were used as test control. For determination of the cell alkaline phosphatase activity the cells were lysed in the buffer containing 0.2% Triton-X100, lisates were incubated together with proluminescent substrate CSPD (Applied Biosystems, USA) and the resultant luminescence was measured using reader VICTOR^2V (PerkinElmer, USA).
The ability of the compounds to inhibit Hh-signalling cascade was determined using C3H10T1/2 cells in 384-well plates as described in example 1. The compounds were added in triplicates in various concentrations, prepared by multiple dilution of starting solutions (concentration dependences of cell alkaline phosphatase inhibition induced by the addition of tested compounds are shown in FIG. 1). Activity of the compounds was characterized by their concentrations produced half maximal inhibition of stimulation of cell alkaline phosphatase SHh (IC50).

[1] = Mus musculus, C3H 10T1/2, half maximal inhibition of SHh (0.3 μg/ml) stimulation of cell alkaline phosphatase
[2] = half maximal inhibition of SHh (0.3 μg/ml) stimulation of cell alkaline phosphatase

SMILES | IC50 [1] [nM] | IC50 [2] [nM]
COc1ccc(C(=O)Nc2ccc(-c3cn4ccccc4n3)cc2)cc1 [III-1006, N-(4-(Imidazo[1,2-a]pyridin-2-yl)phenyl)-4-methoxybenzamide] | < 5000 | –
CC(=O)Nc1ccc(-c2cn3ccccc3n2)cc1 [III-1007, N-(4-(Imidazo[1,2-a]pyridin-2-yl)phenyl)acetamide] | > 50000 | –
Cc1cccn2cc(-c3ccc(NC(=O)Cc4ccccc4)cc3)nc12 [III-1013, N-[4-(8-Methylimidazo[1,2-a]pyridin-2-yl)phenyl]-2-phenylacetamide] | < 5000 | –
O=C(Nc1cccc(-c2cn3ccccc3n2)c1)c1ccc(F)cc1 [III-1015, 4-Fluoro-N-(3-(imidazo[1,2-a]pyridin-2-yl)phenyl)benzamide] | < 500 | –
COc1ccc(C(=O)Nc2cccc(-c3cn4ccccc4n3)c2)cc1 [III-1018, N-(3-(Imidazo[1,2-a]pyridin-2-yl)phenyl)-4-methoxybenzamide] | < 500 | –
COc1ccc(C(=O)Nc2cccc(-c3cn4c(C)cccc4n3)c2)cc1 [III-1019, 4-Methoxy-N-[3-(5-methylimidazo[1,2-a]pyridin-2-yl)phenyl]benzamide] | < 500 | –
Cc1nc(-c2ccccc2)sc1C(=O)Nc1cccc(-c2cn3ccccc3n2)c1 [III-1030, 4-Methyl-2-phenylthiazol-5-carboxylic acid [3-(imidazo[1,2-a]pyridin-2-yl)phenyl]amide] | < 500 | –
O=C(Nc1ccc(-c2cn3cccnc3n2)cc1)C1CCCC1 [IV-1002, Cyclopentanecarboxylic acid (4-imidazo[1,2-a]pyrimidin-2-ylphenyl)amide] | < 50000 | –
COc1ccccc1C(=O)Nc1ccc(-c2cn3cccnc3n2)cc1 [IV-1004, N-(4-(Imidazo[1,2-a]pyrimidin-2-yl)phenyl)-2-methoxybenzamide] | < 500 | –
CCn1c(C(=O)N2CCC(C(=O)N3CCN(c4ccccc4)CC3)CC2)cc2sccc21 [V-1008, (4-Ethyl-4H-thieno[3,2-b]pyrrol-5-yl)[4-(4-phenyl-piperazine-1-carbonyl)piperidine-1-yl]methanone] | < 50000 | –
O=C(c1cc2sccc2n1Cc1ccc(Cl)cc1)N1CCC(C(=O)N2CCCC2)CC1 [V-1027, [4-(4-Chlorobenzyl)-4H-thieno[3,2-b]pyrrol-5-yl]-[4-(pyrrolidin-1-carbonyl)piperidin-1-yl]methanone] | – | < 5000
O=C(NCc1ccccn1)C1CCN(C(=O)c2cc3sccc3n2Cc2ccc(F)cc2F)CC1 [V-1030, 1-[4-(2,4-Difluorobenzyl)-4H-thieno[3,2-b]pyrrole-5-carbonyl]piperidine-4-carboxylic acid [(pyridin-2-yl)methyl]amide] | < 5000 | –
O=C(NCc1cccnc1)C1CCN(C(=O)c2cc3sccc3n2Cc2ccc(F)cc2)CC1 [V-1031] | < 5000 | –
CCN(CC)CCCNC(=O)C1CCN(C(=O)c2cc3sccc3n2Cc2ccc(F)cc2)CC1 [V-1032, 1-[4-(4-Fluorobenzyl)-4H-thieno[3,2-b]pyrrole-5-carbonyl]piperidine-4-carboxylic acid 3-(diethylamino)propylamide] | < 500 | –
Cc1ccc(CNC(=O)C2CCN(C(=O)c3cc4sccc4n3Cc3ccc(F)cc3)CC2)cc1 [V-1033, 1-[4-(4-Fluorobenzyl)-4H-thieno[3,2-b]pyrrole-5-carbonyl]piperidine-4-carboxylic acid [(4-methylphenyl)methyl]amide] | < 500 | –
Cc1ccc(NC(=O)C2CCN(C(=O)c3cc4sccc4n3Cc3ccc(F)cc3)CC2)c(C)c1 [V-1034, 1-[4-(4-Fluorobenzyl)-4H-thieno[3,2-b]pyrrole-5-carbonyl]piperidine-4-carboxylic acid (2,4-dimethylphenyl)amide] | < 500 | –
Cc1ccc(NC(=O)C2CCN(C(=O)c3cc4sccc4n3Cc3ccc(F)cc3)CC2)cc1C [V-1035, 1-[4-(4-Fluorobenzyl)-4H-thieno[3,2-b]pyrrole-5-carbonyl]piperidine-4-carboxylic acid (3,4-dimethylphenyl)amide] | < 500 | –

SMILES | IC50 [1] [nM] | IC50 [2] [nM]
COCCNC(=O)C1CCN(C(=O)c2cc3sccc3n2Cc2ccc(F)cc2)CC1 [V-1036, 1-[4-(4-Fluorobenzyl)-4H-thieno[3,2-b]pyrrole-5-carbonyl]piperidine-4-carboxylic acid (2-methoxyethyl)amide] | < 500 | –
O=C(NCc1ccc(F)cc1)C1CCN(C(=O)c2cc3sccc3n2Cc2ccc(F)cc2)CC1 [V-1037, 1-[4-(4-Fluorobenzyl)-4H-thieno[3,2-b]pyrrole-5-carbonyl]piperidine-4-carboxylic acid [(4-fluorophenyl)methyl]amide] | < 50000 | –
CCN1CCCC1CNC(=O)C1CCN(C(=O)c2cc3sccc3n2Cc2ccc(F)cc2)CC1 (stereo not drawn) [V-1038, 1-[4-(4-Fluorobenzyl)-4H-thieno[3,2-b]pyrrole-5-carbonyl]piperidine-4-carboxylic acid [(1-ethylpyrrolidin-2-yl)methyl]amide] | < 500 | –
CCOCCCNC(=O)C1CCN(C(=O)c2cc3sccc3n2Cc2ccc(F)cc2)CC1 [V-1039, 1-[4-(4-Fluorobenzyl)-4H-thieno[3,2-b]pyrrole-5-carbonyl]piperidine-4-carboxylic acid (3-ethoxypropyl)amide] | < 500 | –
COCCCNC(=O)C1CCN(C(=O)c2cc3sccc3n2Cc2ccc(F)cc2)CC1 [V-1040, 1-[4-(4-Fluorobenzyl)-4H-thieno[3,2-b]pyrrole-5-carbonyl]piperidine-4-carboxylic acid (3-methoxypropyl)amide] | < 500 | –
O=C(NCCN1CCOCC1)C1CCN(C(=O)c2cc3sccc3n2Cc2ccc(F)cc2F)CC1 [V-1041, 1-[4-(2,4-Difluorobenzyl)-4H-thieno[3,2-b]pyrrole-5-carbonyl]piperidine-4-carboxylic acid (2-N-morpholinoethyl)amide] | < 500 | –
O=C(NCCCN1CCCC1)C1CCN(C(=O)c2cc3sccc3n2Cc2ccc(F)cc2)CC1 [V-1042, 1-[4-(4-Fluorobenzyl)-4H-thieno[3,2-b]pyrrole-5-carbonyl]piperidine-4-carboxylic acid (3-N-pyrrolidinopropyl)amide] | < 500 | –
O=C(c1cc2sccc2n1Cc1ccc(Cl)cc1)N1CCC(C(=O)N2CCCC2)CC1 [V-1044, 1-[4-(4-Chlorobenzyl)-4H-thieno[3,2-b]pyrrole-5-carbonyl]piperidine-4-carboxylic acid tetramethylenamide] | – | < 500
O=C(NCc1ccccn1)C1CCN(C(=O)c2cc3sccc3n2Cc2ccc(Cl)cc2)CC1 [V-1045, 1-[4-(4-Chlorobenzyl)-4H-thieno[3,2-b]pyrrole-5-carbonyl]piperidine-4-carboxylic acid [(pyridin-2-yl)methyl]amide] | < 5000 | –
O=C(NCC1CCCO1)C1CCN(C(=O)c2cc3sccc3n2Cc2ccc(Cl)cc2)CC1 (stereo not drawn) [V-1046, 1-[4-(4-Chlorobenzyl)-4H-thieno[3,2-b]pyrrole-5-carbonyl]piperidine-4-carboxylic acid [(tetrahydrofuran-2-yl)methyl]amide] | < 5000 | –
COCCCNC(=O)C1CCN(C(=O)c2cc3sccc3n2Cc2ccc(Cl)cc2)CC1 [V-1047, 1-[4-(4-Chlorobenzyl)-4H-thieno[3,2-b]pyrrole-5-carbonyl]piperidine-4-carboxylic acid (3-methoxypropyl)amide] | < 500 | –
CN1CCN(C(=O)C2CCN(C(=O)c3cc4sccc4n3Cc3ccc(F)cc3)CC2)CC1 [V-1048, [4-(4-Fluorobenzyl)-4H-thieno[3,2-b]pyrrol-5-yl]-[4-(4-methylpiperazine-1-carbonyl)piperidin-1-yl]methanone] | < 500 | –
CN1CCN(C(=O)C2CCN(C(=O)c3cc4sccc4n3Cc3cccc(Cl)c3)CC2)CC1 [V-1049, [4-(3-Chlorobenzyl)-4H-thieno[3,2-b]pyrrol-5-yl]-[4-(4-methylpiperazine-1-carbonyl)piperidin-1-yl]methanone] | < 500 | –
CN1CCN(C(=O)C2CCN(C(=O)c3cc4sccc4n3Cc3cccc(F)c3)CC2)CC1 [V-1050, [4-(3-Fluorobenzyl)-4H-thieno[3,2-b]pyrrol-5-yl]-[4-(4-methylpiperazine-1-carbonyl)piperidin-1-yl]methanone] | < 500 | –
CN1CCN(C(=O)C2CCN(C(=O)c3cc4sccc4n3Cc3ccccc3F)CC2)CC1 [V-1051, [4-(2-Fluorobenzyl)-4H-thieno[3,2-b]pyrrol-5-yl]-[4-(4-methylpiperazine-1-carbonyl)piperidin-1-yl]methanone] | < 500 | –
CN1CCN(C(=O)C2CCN(C(=O)c3cc4sccc4n3Cc3ccccc3Cl)CC2)CC1 [V-1052, [4-(2-Chlorobenzyl)-4H-thieno[3,2-b]pyrrol-5-yl]-[4-(4-methylpiperazine-1-carbonyl)piperidin-1-yl]methanone] | < 500 | –

Source: patent US8486945B2, “Heterocyclic inhibitors of an Hh-signal cascade, medicinal compositions based thereon and methods for treating diseases caused by the aberrant activity of an Hh-signal system” (priority 2007, dated 2013)
